Laboratory results published in paper PMC10455239, “Antimicrobial, Cytotoxic, and α-Glucosidase Inhibitory Activities of Ethanol Extract and Chemical Constituents Isolated from Homotrigona apicalis Propolis—In Vitro and Molecular Docking Studies” (Life, 2023).
In brackets after ≈: the same amount, converted by molar mass. Like-named read-outs stand apart in the source and are kept apart here.

Legend:
[1] = test system: A-549 (human lung adenocarcinoma); assay: Cytotoxicity assay (MTT); format: cell-based; settings: read-out: IC50 A-549
Method: (§1) The cytotoxic assays were evaluated in triplicate against three cancer cell lines, namely KB (epidermal carcinoma), A-549 (human lung adenocarcinoma), and HepG-2 (human hepatoma) (ATCC), with a modification of the previously published method. The cells were cultured in Dulbecco’s D-MEM medium (Gibco, Life Technologies Corporation, Grand Island, NY, USA), supplemented with 10% fetal calf serum (Sigma-Aldrich, St. Loius, MO, USA), L-glutamine (2 mM) (Sigma-Aldrich, St. Loius, MO, USA), penicillin G (100 UI/mL), and streptomycin (100 μg/mL) (Sigma-Aldrich, St. Loius, MO, USA). The compound solutions were prepared in DMSO, and the cytotoxic assays were conducted in 96-well microtiter plates against the cancer cells (3 × 10^5 cells/mL concentration). After 48 h incubation at 37 °C in an air/CO2 (95:5) atmosphere, with or without isolated compounds, MTT reagent was added to each well (0.5 mg/mL). The cell growth was assessed by measuring the colorimetric of formazan at 570 nm using a microplate reader. […] Ellipticine was used as a positive reference.

HepG-2 (human hepatoma) = assay: Cytotoxicity assay (MTT); format: cell-based; settings: read-out: IC50 Hep-G2
Method: as §1

KB (epidermal carcinoma) = assay: Cytotoxicity assay (MTT); format: cell-based; settings: read-out: IC50 KB
Method: as §1

Candida albicans = assay: Antimicrobial activity, broth microdilution; format: cell-based; settings: for IC50: Candida albicans, read-out: IC50 C. albicans
Method: (§2) The antimicrobial activity assay was performed using the broth microdilution method. Dimethyl sulfoxide (DMSO) was used for the preparation of compound solutions at concentrations of 256 μg/mL, 64 μg/mL, 16 μg/mL, 4 μg/mL, and 1 μg/mL. Three strains of Gram-positive bacteria (Staphylococcus aureus, Bacillus cereus, and Lactobacillus fermentum); three strains of Gram-negative bacteria (Salmonella enterica, Escherichia coli, and Pseudomonas aeruginosa), and fungus Candida albicans (obtained from the American Type Culture Collection (ATCC)) were used for the test. Ampicillin, Cefotaxim, and Nystatin were used as positive controls for the Gram (+) bacterial and Gram (−) bacterial strains and C. albicans, respectively. The activity of the isolated compounds was expressed as an IC50 value (half-maximal inhibitory concentration). The IC50 values were calculated using the program […].

Bacillus cereus = assay: Antimicrobial activity, broth microdilution; format: cell-based; settings: read-out: IC50 B. cereus
Method: as §2

Escherichia coli = assay: Antimicrobial activity, broth microdilution; format: cell-based; settings: for IC50: Escherichia coli, read-out: IC50 E. coli
Method: as §2

Staphylococcus aureus = assay: Antimicrobial activity, broth microdilution; format: cell-based; settings: read-out: IC50 S. aureus
Method: as §2

Salmonella enterica = assay: Antimicrobial activity, broth microdilution; format: cell-based; settings: Gram (−) strain; for IC50: Salmonella enterica, read-out: IC50 S. enterica
Method: as §2

Lactobacillus fermentum = assay: Antimicrobial activity, broth microdilution; format: cell-based; settings: read-out: IC50 L. fermentum
Method: as §2

Pseudomonas aeruginosa = assay: Antimicrobial activity, broth microdilution; format: cell-based; settings: for IC50: Pseudomonas aeruginosa, read-out: IC50 P. aeruginosa
Method: as §2

[2] = test system: Gram (+) bacterial strains; assay: Antibacterial activity, range over strains; format: cell-based; settings: range over strains and compounds
Method: as §2

α-glucosidase [3] = target: T1, α-glucosidase (Saccharomyces cerevisiae, UniProt P53341); assay: biochemical
T1 construct: purchased Sigma-Aldrich G0660
Method: An assay for the α-glucosidase inhibitory activity was carried out by a modification of the published method. Briefly, solutions of α-glucosidase (Saccharomyces cerevisiae, G0660, Sigma-Aldrich, St. Louis, MO, USA) and p-nitrophenyl α-D-glucopyranoside (Sigma-Aldrich, St. Louis, MO, USA) were prepared in a phosphate buffer (100 mM, pH 6.8, Sigma-Aldrich, St. Louis, MO, USA). […] The compound solution (2 μL) and 40 µL of enzyme solution (0.5 U/mL) in 120 µL phosphate buffer were mixed. After 5 min of preincubation, 20 µL of 10 mM p-nitrophenyl α-D-glucopyranoside prepared in phosphate buffer was added, and the reaction mixture was incubated for 30 min at 37 °C. The reaction was quenched by the addition of 80 µL of 0.2 M Na2CO3. The absorbance of the released p-nitrophenol was measured at 410 nm using a Biotek reader. The % inhibition was calculated using the following equation:Inhibition (%) = [1 − (Asample/Acontrol)] ∗ 100
The IC50 values of the isolated compounds were calculated using the program Table Curve.

[4] = test system: KB, HepG-2, and A-549 cancer cell lines; assay: Cytotoxicity assay (MTT), range over the three cell lines; format: cell-based; settings: range over three cell lines and both xanthones
Method: as §1

α-glucosidase [5] = settings: cited from earlier work
[6] = Table S1, α-glucosidase, read-out: IC50 (Table S1) (converted)
[7] = p-nitrophenyl α-D-glucopyranoside, pH 6.8, 37 °C, read-out: IC50 α-Glucosidase Inhibitory Activity
[8] = IC50 (Table S1), Table S1, α-glucosidase
[9] = IC50 α-Glucosidase Inhibitory Activity, p-nitrophenyl α-D-glucopyranoside, pH 6.8, 37 °C

T1 sequence (P53341 whole entry): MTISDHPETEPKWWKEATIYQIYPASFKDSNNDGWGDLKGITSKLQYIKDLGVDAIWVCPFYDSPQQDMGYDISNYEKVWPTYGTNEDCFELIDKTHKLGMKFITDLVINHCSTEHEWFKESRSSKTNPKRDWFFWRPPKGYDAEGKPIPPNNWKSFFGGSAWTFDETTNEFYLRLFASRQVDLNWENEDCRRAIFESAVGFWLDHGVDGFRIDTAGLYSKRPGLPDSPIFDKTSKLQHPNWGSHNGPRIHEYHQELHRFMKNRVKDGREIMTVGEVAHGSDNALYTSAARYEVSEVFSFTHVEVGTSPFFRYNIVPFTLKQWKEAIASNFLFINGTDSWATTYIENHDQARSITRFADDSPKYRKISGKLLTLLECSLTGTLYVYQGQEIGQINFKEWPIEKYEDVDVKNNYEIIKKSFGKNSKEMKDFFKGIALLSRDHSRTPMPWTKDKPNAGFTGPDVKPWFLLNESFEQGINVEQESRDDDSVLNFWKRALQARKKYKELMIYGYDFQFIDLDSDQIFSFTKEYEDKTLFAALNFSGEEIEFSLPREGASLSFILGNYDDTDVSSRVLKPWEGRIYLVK

SMILES	IC50 ([1]; A549, MTT, 48 h incubation) [µg/mL]	IC50 (HepG-2 (human hepatoma); HepG2, MTT, 48 h incubation) [µg/mL]	IC50 (KB (epidermal carcinoma); MTT, 48 h incubation) [µg/mL]	IC50 (Bacillus cereus; Gram (+) strain) [µg/mL]	IC50 (Staphylococcus aureus; Gram (+) strain) [µg/mL]	IC50 (Salmonella enterica) [µg/mL]	IC50 (Lactobacillus fermentum; Gram (+) strain) [µg/mL]	IC50 (α-glucosidase [3]; [6]) [µM]	IC50 (α-glucosidase [3]; [7]) [µM]	IC50 (Candida albicans) [µg/mL]	IC50 (Bacillus cereus) [µg/mL]	IC50 (Escherichia coli) [µg/mL]	IC50 (Staphylococcus aureus) [µg/mL]	IC50 (Lactobacillus fermentum) [µg/mL]	IC50 (Pseudomonas aeruginosa) [µg/mL]	other results
C[C@H]1[C@H](C)CC[C@]2(C(=O)O)CC[C@]3(C)C(=CC[C@@H]4[C@@]5(C)CC[C@H](O)C(C)(C)[C@@H]5CC[C@]43C)[C@H]12 [Compound 7, ursolic acid]	> 128	> 128	> 128	10.2 ± 0.67 (≈ 22.3 µM)	7.1 ± 0.25 (≈ 15.5 µM)	> 256	10.6 ± 0.7 (≈ 23.2 µM)	–	–	–	–	–	–	–	–	IC50 (Candida albicans; Fungus): > 256 µg/mL; IC50 (Escherichia coli; Gram (−) strain): > 256 µg/mL; IC50 (Pseudomonas aeruginosa; Gram (−) strain): > 256 µg/mL; IC50 [2]: 0.56 to 17.3 µg/mL (≈ 1.23 to 37.9 µM)
CC1(C)[C@H]2[C@H]3[C@H](CC[C@@]3(C)O)[C@@](C)(O)CC[C@H]21 [Compound 4, 1βH,5βH-aromandendrane-4α,10β-diol]	> 128	> 128	89.1 ± 9.67 (≈ 374 µM)	–	–	> 256	–	> 1070	> 1070	> 256	> 256	> 256	> 256	> 256	> 256	–
CO/N=C(\C(=O)N[C@@H]1C(=O)N2C(C(=O)O)=C(COC(C)=O)CS[C@H]12)c1csc(N)n1 [C, Cefotaxim, reference compound]	–	–	–	–	–	–	–	–	–	–	–	–	–	–	–	IC50 E. coli (Escherichia coli; Gram (−) strain): 0.07 ± 0.02 µg/mL (≈ 0.154 µM); IC50 S. enterica (Salmonella enterica): 0.43 ± 0.05 µg/mL (≈ 0.944 µM); IC50 P. aeruginosa (Pseudomonas aeruginosa; Gram (−) strain): 4.34 ± 0.15 µg/mL (≈ 9.53 µM)
CC(C)=CCC/C(C)=C/Cc1c(O)c(CC=C(C)C)c(O)c2c(=O)c3cc(O)ccc3oc12 [Compound 8, cochinchinone A]	20.3 ± 1.34 (≈ 45.3 µM)	17.4 ± 1.03 (≈ 38.7 µM)	29.3 ± 2.07 (≈ 65.3 µM)	7.99 ± 0.33 (≈ 17.8 µM)	17.3 ± 0.87 (≈ 38.6 µM)	> 256	8.67 ± 0.38 (≈ 19.3 µM)	20.2	–	–	–	–	–	–	–	IC50 [4]: 7.55 to 29.3 µg/mL (≈ 16.8 to 65.3 µM); IC50 (Candida albicans; Fungus): 65.3 ± 3.54 µg/mL (≈ 146 µM); IC50 (Escherichia coli; Gram (−) strain): > 256 µg/mL; IC50 (Pseudomonas aeruginosa; Gram (−) strain): 35.4 ± 2.03 µg/mL (≈ 79 µM); IC50 [2]: 0.56 to 17.3 µg/mL (≈ 1.25 to 38.6 µM)
CC1(C)[C@H]2[C@H]3[C@@H](CC[C@]3(C)O)[C@](C)(O)CC[C@H]21 [Compound 2, 1αH,5βH-aromandendrane-4β,10α-diol]	> 128	> 128	> 128	–	–	> 256	–	> 1070	> 1070	> 256	> 256	> 256	> 256	> 256	> 256	–
CC1(C)S[C@@H]2[C@H](NC(=O)[C@H](N)c3ccccc3)C(=O)N2[C@H]1C(=O)O [A, Ampicillin, reference compound]	–	–	–	3.62 ± 0.15 (≈ 10.4 µM)	0.02 ± 0.005 (≈ 0.0572 µM)	–	1.03 ± 0.07 (≈ 2.95 µM)	–	–	–	–	–	–	–	–	–
C[C@@H]1[C@H](O)[C@@H](C)/C=C/C=C/CC/C=C/C=C/C=C/C=C/C(O[C@H]2O[C@H](C)[C@@H](O)[C@H](N)[C@@H]2O)CC2O[C@](O)(CC(O)C(O)CCC(O)CC(O)CC(O)CC(=O)O[C@H]1C)CC(O)C2C(=O)O (stereo partly drawn) [N, Nystatin, reference compound]	–	–	–	–	–	–	–	–	–	–	–	–	–	–	–	IC50 C. albicans (Candida albicans; Fungus): 1.32 ± 0.05 µg/mL (≈ 1.43 µM)
CC(C)=CCC[C@H](C(=O)O)[C@@H]1CC[C@]2(C)C3=C(CC[C@@]12C)[C@@]1(C)CC[C@@H](O)C(C)(C)[C@@H]1CC3 [Compound 6, 3α-hydroxytirucalla-8,24-dien-21-oic acid]	–	–	–	–	–	> 256	–	–	–	> 256	141 ± 4.14 (≈ 308 µM)	> 256	> 256	62.2 ± 1.24 (≈ 136 µM)	> 256	IC50 (α-glucosidase [3]; [8]): > 561 µM; IC50 (α-glucosidase [3]; [9]): > 561 µM; IC50 ([1]; A549, 48 h): 78.6 ± 7.69 µg/mL (≈ 172 µM); IC50 (HepG-2 (human hepatoma); HepG2, 48 h): 77.7 ± 8.09 µg/mL (≈ 170 µM); IC50 (KB (epidermal carcinoma); 48 h): 49.3 ± 5.21 µg/mL (≈ 108 µM)
Cc1c2ccncc2c(C)c2c1[nH]c1ccccc12 [Ellipticine, reference compound]	0.34 ± 0.02 (≈ 1.38 µM)	0.5 ± 0.03 (≈ 2.03 µM)	0.48 ± 0.03 (≈ 1.95 µM)	–	–	–	–	–	–	–	–	–	–	–	–	–
COc1c(O)cc2oc3cc(O)c(CC=C(C)C)c(O)c3c(=O)c2c1CC=C(C)C [Compound 9, α-mangostin]	7.55 ± 0.25 (≈ 18.4 µM)	12.9 ± 0.68 (≈ 31.4 µM)	9.28 ± 0.58 (≈ 22.6 µM)	0.57 ± 0.07 (≈ 1.39 µM)	0.54 ± 0.07 (≈ 1.32 µM)	16.3 ± 0.78 (≈ 39.8 µM)	0.56 ± 0.09 (≈ 1.36 µM)	–	–	–	–	–	–	–	–	IC50 (α-glucosidase [3]; [8]): 4.63 µM; IC50 (α-glucosidase [3]; [9]): 4.63 µM; IC50 (α-glucosidase [3]; IC50 α-glucosidase, equivalent in μM, converted from μg/mL): 4.63 ± 0.24 µM; IC50 [4]: 7.55 to 29.3 µg/mL (≈ 18.4 to 71.3 µM); IC50 (α-glucosidase [5]; ref 59 (Nam K. Nguyen et al.)): 11.4 ± 2.3 µM; IC50 (α-glucosidase [5]; ref 60 (H. W. Ryu et al.)): 5 ± 0.1 µM; IC50 (Candida albicans; Fungus): 0.56 ± 0.06 µg/mL (≈ 1.36 µM); IC50 (Escherichia coli; Gram (−) strain): 7.89 ± 0.34 µg/mL (≈ 19.2 µM); IC50 (Pseudomonas aeruginosa; Gram (−) strain): 1.22 ± 0.09 µg/mL (≈ 2.97 µM); IC50 [2]: 0.56 to 17.3 µg/mL (≈ 1.36 to 42.2 µM)
CC(=O)O[C@H]1CC[C@]2(C)[C@H]3CC=C4[C@@H]5CC(C)(C)CC[C@]5(C(=O)O)CC[C@@]4(C)[C@]3(C)CC[C@H]2C1(C)C [Compound 5, acetyl oleanolic acid]	–	–	–	–	–	> 256	–	–	–	> 256	> 256	> 256	> 256	49.9 ± 1.06 (≈ 100 µM)	> 256	IC50 (α-glucosidase [3]; [8]): 16.9 µM; IC50 (α-glucosidase [3]; [9]): 16.9 µM; IC50 ([1]; A549, 48 h): > 128 µg/mL; IC50 (HepG-2 (human hepatoma); HepG2, 48 h): > 128 µg/mL; IC50 (KB (epidermal carcinoma); 48 h): > 128 µg/mL
C=C1CC[C@@H](O)[C@]2(C)CC[C@@H](C(C)C)[C@H](O)[C@@H]12 [Compound 3, 1β,6α-dihydroxy-4(15)-eudesmene]	> 128	> 128	> 128	–	–	> 256	–	> 1070	> 1070	> 256	> 256	> 256	> 256	> 256	> 256	–
C=C1CC[C@@H]2[C@H]([C@H]3[C@H]1CC[C@]3(C)O)C2(C)C [Compound 1, spathulenol]	> 128	> 128	> 128	–	–	> 256	206 ± 5.23 (≈ 934 µM)	> 1160	> 1160	> 256	> 256	> 256	> 256	–	> 256	–
